Assay [1] has as its target Amyloid-beta precursor protein (Homo sapiens) (UniProt P05067). The experiment in a line: Inhibition of self-assembly of human amyloid beta (1-42) aggregation at 10 uM by thioflavin T-based fluorometric assay.
The target of assay [2] is Cholinesterases; ACHE & BCHE (Homo sapiens) (UniProt P06276+P22303). The experiment in a line: Selectivity ratio of IC50 for human recombinant BchE to IC50 for human recombinant AChE.
The target in assay [3] is Cholinesterase (Homo sapiens, UniProt P06276). The experiment in a line: Inhibition of human recombinant BchE preincubated 20 mins before substrate addition by Ellman method. A general note: DTNB colorimetry detects thiols as they appear.
Sequence of Cholinesterase (P06276 whole entry): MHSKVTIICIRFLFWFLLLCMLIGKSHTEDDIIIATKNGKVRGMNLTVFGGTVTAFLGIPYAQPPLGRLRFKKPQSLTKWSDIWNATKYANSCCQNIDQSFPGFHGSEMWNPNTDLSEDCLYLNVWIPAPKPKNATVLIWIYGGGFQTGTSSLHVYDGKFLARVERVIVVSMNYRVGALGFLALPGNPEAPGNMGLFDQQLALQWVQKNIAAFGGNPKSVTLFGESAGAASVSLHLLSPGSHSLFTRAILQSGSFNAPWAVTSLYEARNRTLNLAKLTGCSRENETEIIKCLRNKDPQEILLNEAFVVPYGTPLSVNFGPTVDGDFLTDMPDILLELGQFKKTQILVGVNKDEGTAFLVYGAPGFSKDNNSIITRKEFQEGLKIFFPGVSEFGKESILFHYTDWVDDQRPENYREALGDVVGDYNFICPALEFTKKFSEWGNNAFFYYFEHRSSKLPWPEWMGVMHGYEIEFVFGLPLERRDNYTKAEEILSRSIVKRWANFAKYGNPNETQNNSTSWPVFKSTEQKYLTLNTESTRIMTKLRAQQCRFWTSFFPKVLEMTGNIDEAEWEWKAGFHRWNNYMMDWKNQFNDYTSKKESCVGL
Assay [4] concerns the target T1, Acetylcholinesterase (Homo sapiens, UniProt P22303). The experiment in a line: Inhibition of human AChE-induced amyloid beta (1-40) aggregation by thioflavin T fluorescence-based assay.
For assay [5], the target named is T1, Acetylcholinesterase. Put plainly: Inhibition of human recombinant AChE preincubated 20 mins before substrate addition by Ellman method.

Molecules are shown by their SMILES.

T1 sequence (P22303 whole entry): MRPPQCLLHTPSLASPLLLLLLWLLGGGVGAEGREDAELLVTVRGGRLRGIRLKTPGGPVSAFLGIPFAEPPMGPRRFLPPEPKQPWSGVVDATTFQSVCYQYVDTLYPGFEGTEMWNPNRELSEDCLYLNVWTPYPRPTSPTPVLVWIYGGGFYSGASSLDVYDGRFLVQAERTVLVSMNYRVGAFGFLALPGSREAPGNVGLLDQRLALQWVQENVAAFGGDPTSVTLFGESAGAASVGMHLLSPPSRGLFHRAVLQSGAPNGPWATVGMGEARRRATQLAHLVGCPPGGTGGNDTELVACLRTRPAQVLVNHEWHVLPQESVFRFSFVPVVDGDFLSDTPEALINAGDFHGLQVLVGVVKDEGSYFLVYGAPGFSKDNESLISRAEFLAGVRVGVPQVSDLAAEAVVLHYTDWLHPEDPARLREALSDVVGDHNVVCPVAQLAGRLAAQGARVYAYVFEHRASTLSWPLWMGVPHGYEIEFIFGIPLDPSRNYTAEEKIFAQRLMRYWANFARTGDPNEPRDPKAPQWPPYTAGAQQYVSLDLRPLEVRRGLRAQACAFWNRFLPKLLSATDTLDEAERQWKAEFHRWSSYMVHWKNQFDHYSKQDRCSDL
Sequence of Amyloid-beta precursor protein (Homo sapiens) (P05067 whole entry): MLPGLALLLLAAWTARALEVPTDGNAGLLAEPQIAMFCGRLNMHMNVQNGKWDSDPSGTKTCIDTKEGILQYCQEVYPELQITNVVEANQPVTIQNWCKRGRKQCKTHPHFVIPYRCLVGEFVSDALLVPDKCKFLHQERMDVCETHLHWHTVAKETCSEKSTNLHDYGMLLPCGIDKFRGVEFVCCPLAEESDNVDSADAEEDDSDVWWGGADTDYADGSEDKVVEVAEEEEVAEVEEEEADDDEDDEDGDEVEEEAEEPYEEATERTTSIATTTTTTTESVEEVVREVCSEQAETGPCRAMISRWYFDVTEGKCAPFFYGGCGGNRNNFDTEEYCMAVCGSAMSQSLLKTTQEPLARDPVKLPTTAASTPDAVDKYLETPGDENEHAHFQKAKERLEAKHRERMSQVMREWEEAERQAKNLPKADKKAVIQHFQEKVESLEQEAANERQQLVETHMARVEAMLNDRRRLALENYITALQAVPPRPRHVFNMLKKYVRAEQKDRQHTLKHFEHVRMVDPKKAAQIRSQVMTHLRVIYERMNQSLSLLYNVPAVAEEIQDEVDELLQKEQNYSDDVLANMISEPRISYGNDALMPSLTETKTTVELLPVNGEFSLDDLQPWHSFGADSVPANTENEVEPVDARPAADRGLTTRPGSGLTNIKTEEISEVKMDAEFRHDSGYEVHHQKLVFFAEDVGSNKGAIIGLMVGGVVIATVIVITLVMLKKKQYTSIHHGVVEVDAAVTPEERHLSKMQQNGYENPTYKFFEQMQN
Sequence of Cholinesterases; ACHE & BCHE (Homo sapiens) (P06276 whole entry, looked up): as the sequence (P06276 whole entry) above
Sequence of Cholinesterases; ACHE & BCHE (Homo sapiens) (P22303 whole entry, looked up): as the sequence (P22303 whole entry) above

As usually defined, the inhibition is how much of the control response was suppressed. A low value points to a weak effect. The IC50 is the midpoint of a concentration-inhibition curve. `CCN(CCCCCCNC1=CC(=O)C(NCCCCCCN(CC)[C@@H](C)c2ccccc2OC)=CC1=O)[C@@H](C)c1ccccc1OC`: in assay [1], the inhibition stood at 62.3%. Further, the Ratio IC50 in assay [2] worked out at 238. Further, the IC50 in assay [3] is 0.958 µM; in assay [4], 7.91 µM; in assay [5], 0.00403 µM.

In turn, `CCN(CCCCCCNC1=CC(=O)C(NCCCCCCN(CC)[C@H](C)c2ccccc2OC)=CC1=O)[C@H](C)c1ccccc1OC` gave an inhibition in assay [1] of 63.9%. Moreover, the Ratio IC50 in assay [2] was found to be 2960. Also, the values for the IC50 in assay [3], in assay [4] and in assay [5] were 1.48 µM, 9.34 µM and 0.0005 µM, respectively.

`CCN(CCCCCCNC1=CC(=O)C(NCCCCCCN(CC)[C@@H](C)c2ccccc2OC)=CC1=O)[C@H](C)c1ccccc1OC` came in with an inhibition in assay [1] of 63.5%. The Ratio IC50 in assay [2] amounted to 2730. The half-inhibitory concentration (IC50) amounted to 0.982 µM in assay [3], 11 µM in assay [4] and 0.00036 µM in assay [5].

For `CCN(CCCCCCNC1=CC(=O)C(NCCCCCCN(CC)Cc2ccccc2OC)=CC1=O)Cc1ccccc1OC`, in assay [2], the Ratio IC50 came out at 929.
